Drawing on PMC8286840, “Identifying SARS-CoV-2 antiviral compounds by screening for small molecule inhibitors of Nsp3 papain-like protease” (Biochemical Journal, 2021), this text covers remaining activity for 31 molecules.

Assay [1] deals with T1, SARS-CoV-2 PLpro (nsp3 1564–1878) (Severe acute respiratory syndrome coronavirus 2, UniProt P0DTD1). The experiment in a line: biochemical. Details: FRET-quenched peptide (Pro3) cleavage by PLpro, 10 min pre-incubation, slope over 20 min, normalised to no-compound control. Conditions: low concentration screen, read-out: % of control remaining.
Assay [2] addresses T1, SARS-CoV-2 PLpro (nsp3 1564–1878). The assay is described as follows: biochemical. Details: FRET-quenched peptide (Pro3) cleavage by PLpro, 10 min pre-incubation, slope over 20 min, normalised to no-compound control. As to conditions: high concentration screen, read-out: % of control remaining.

Molecules are shown by their SMILES. Where a name gives a salt, the structure may show the parent alone. Read-outs that look alike come from different tables or passages of the source. Where a SMILES comes first, the peptide text is derived from it.

Consider `O=C(/C=C/c1ccccc1)NC(NC(=S)Nc1cccc2cccnc12)C(Cl)(Cl)Cl` (stereo not shown) [Salubrinal], for which the remaining activity at 1.25 µM in assay [1] (Well no.=4877) came out at 98.9%. Also, the remaining activity at 3.75 µM in assay [2] (Well no.=4877) was 99.5%.
As for `O=c1[nH]c2ccccc2n1CCCN1CCC(n2c(=O)[nH]c3cc(Cl)ccc32)CC1` [Domperidone], the remaining activity at 1.25 µM in assay [1] (Well no.=496) is 107%; in assay [1] (Well no.=1598) it was 96.5%; in assay [1] (Well no.=7485) it was 94%. The figures for the remaining activity at 3.75 µM in assay [2] (Well no.=496), in assay [2] (Well no.=1598) and in assay [2] (Well no.=7485) were 104%, 99.4% and 89.8%, respectively.
As for `CN(C)Cc1c(C(=O)NCCOc2ccc(C(=O)NO)cc2)oc2ccccc12` [PCI-24781], the remaining activity at 1.25 µM in assay [1] (Well no.=4840) stood at 101%. Also, the remaining activity at 3.75 µM in assay [2] (Well no.=4840) was determined as 100%.
`N[C@@H](CCl)C(=O)O` [beta-Chloro-L-alanine hydrochloride]: the remaining activity at 1.25 µM in assay [1] (Well no.=142) stood at 103%. The remaining activity at 3.75 µM in assay [2] (Well no.=142) came to 105%.
Regarding `CCC1(C2=NCCN2)Cc2ccccc2O1` (stereo not shown) [Efaroxan hydrochloride], in assay [1] (Well no.=603), the remaining activity at 1.25 µM was determined as 97.3%. Further, the remaining activity at 3.75 µM in assay [2] (Well no.=603) amounted to 96.2%.
For the molecule `N=C(N)NC(=O)Cc1c(Cl)cccc1Cl` [Guanfacine.HCl], the remaining activity at 1.25 µM in assay [1] (Well no.=1894) turned out to be 95.7%. Further, the remaining activity at 3.75 µM in assay [2] (Well no.=1894) is 95.2%.
As to `CC(C)(Cc1nc(-c2ccc(O)cn2)no1)C(=O)NC1=C(C(=O)O)CCCC1` [MK-6892], the remaining activity at 1.25 µM in assay [1] (Well no.=7953) came to 101%. Also, in assay [2] (Well no.=7953), the remaining activity at 3.75 µM was determined as 100%.
With `NCCC1CCCC(CCN)N1` (stereo not shown) [MDL 26,630 trihydrochloride], the remaining activity at 1.25 µM in assay [1] (Well no.=945) amounted to 103%. Besides, the remaining activity at 3.75 µM in assay [2] (Well no.=945) worked out at 104%.
In the case of `CC1CN(S(=O)(=O)c2cccc3cnccc23)CCN1` (stereo not shown) [1-(5-Isoquinolinylsulfonyl)-3-methylpiperazine dihydrochloride], the remaining activity at 1.25 µM in assay [1] (Well no.=869) was found to be 106%. In addition, in assay [2] (Well no.=869), the remaining activity at 3.75 µM worked out at 104%.
For the molecule `CC(C)Oc1cccnc1N(C)C1CCN(Cc2ccccc2)CC1` [U-101958 maleate], in assay [1] (Well no.=1526), the remaining activity at 1.25 µM worked out at 93.8%. For the same molecule, the remaining activity at 3.75 µM in assay [2] (Well no.=1526) was found to be 92.1%.
Turning to `CCCCC1CCC(c2nc(-c3ccncc3)no2)CC1` (stereo not shown) [PSN-375963], the remaining activity at 1.25 µM in assay [1] (Well no.=5398) turned out to be 106%. For the same molecule, the remaining activity at 3.75 µM in assay [2] (Well no.=5398) worked out at 106%.
Turning to `O=c1cc(N2CCOCC2)oc2c(-c3ccccc3)cccc12` [LY 294002 hydrochloride - 2-(4-Morpholinyl)-8-phenyl-4H-1-benzopyran-4-one hydrochloride], in assay [1] (Well no.=2344), the remaining activity at 1.25 µM came out at 97.3%. In addition, the remaining activity at 3.75 µM in assay [2] (Well no.=2344) was found to be 98.8%.
As for `CNS(=O)(=O)CCc1ccc2[nH]cc(C3CCN(C)CC3)c2c1` [Naratriptan (hydrochloride)], the remaining activity at 1.25 µM in assay [1] (Well no.=7385) was determined as 100%. The remaining activity at 3.75 µM in assay [2] (Well no.=7385) was determined as 100%.
In the case of `COc1cccc2oc(-c3ccccc3)cc(=O)c12` [5-Methoxyflavone], the remaining activity at 1.25 µM in assay [1] (Well no.=3453) was found to be 92.1%. The remaining activity at 3.75 µM in assay [2] (Well no.=3453) is 90.5%.
Consider `O=C(c1ccccc1)c1ccc2n1CCC2C(=O)O` (stereo not shown) [Ketorolac tris salt], for which, in assay [1] (Well no.=925), the remaining activity at 1.25 µM was 108%. In addition, the remaining activity at 3.75 µM in assay [2] (Well no.=925) came to 103%.
Consider `CCCCc1ccc(NC(C)=O)c(C)c1` [SMIP004], for which the remaining activity at 1.25 µM in assay [1] (Well no.=6972) turned out to be 101%. The remaining activity at 3.75 µM in assay [2] (Well no.=6972) turned out to be 98.7%.
With `COc1ccc([C@@H]2CC(=O)c3c(O)cc(O[C@@H]4O[C@H](CO[C@@H]5O[C@@H](C)[C@H](O)[C@@H](O)[C@H]5O)[C@@H](O)[C@H](O)[C@H]4O)cc3O2)cc1OC` [Methyl-Hesperidin], in assay [1] (Well no.=4864), the remaining activity at 1.25 µM is 98.4%. Moreover, the remaining activity at 3.75 µM in assay [2] (Well no.=4864) amounted to 99.3%.
As for `Oc1cccc(O)c1O` [Pyrogallol], the remaining activity at 1.25 µM in assay [1] (Well no.=6975) was 104%. Further, the remaining activity at 3.75 µM in assay [2] (Well no.=6975) stood at 105%.
As for `CC(=O)N[C@@H]1C[C@H](NC(C)(C)C)CC[C@@H]1N1CC[C@H](Nc2ncnc3cc(C(C)(C)C)nn23)C1=O` [BMS-813160], the remaining activity at 1.25 µM in assay [1] (Well no.=8217) stood at 103%. Moreover, the remaining activity at 3.75 µM in assay [2] (Well no.=8217) was determined as 100%.
On to `CC(C)(CCCCCCCCCCC(C)(C)CC(=O)O)CC(=O)O` [MEDICA 16], for which the remaining activity at 1.25 µM in assay [1] (Well no.=5805) amounted to 91.5%. Also, in assay [2] (Well no.=5805), the remaining activity at 3.75 µM came out at 91.6%.
`Oc1ccc(C2CNCCc3c2cc(O)c(O)c3Cl)cc1` (stereo not shown) [Fenoldopam bromide]: the remaining activity at 1.25 µM in assay [1] (Well no.=757) turned out to be 98.2%. The remaining activity at 3.75 µM in assay [2] (Well no.=757) amounted to 96.8%.
Take `C[N+](C)(C)C[C@H](O)CC(=O)[O-]` [L-carnitine]: the remaining activity at 1.25 µM in assay [1] (Well no.=8100) is 106%. For the same molecule, in assay [2] (Well no.=8100), the remaining activity at 3.75 µM is 104%.
Regarding `COC(=O)[C@H](c1ccccc1Cl)N1CCc2sccc2C1` [Clopidogrel], the remaining activity at 1.25 µM in assay [1] (Well no.=2277) was 90.2%. Further, the remaining activity at 3.75 µM in assay [2] (Well no.=2277) was 93%.
For the molecule `C[C@H]1CCC[C@H](O)CCCCCc2cc(O)cc(O)c2C(=O)O1`, in assay [1] (Well no.=3340), the remaining activity at 1.25 µM came to 91.6%. Moreover, the remaining activity at 3.75 µM in assay [2] (Well no.=3340) was 94%.
Take `NS(=O)(=O)c1ccc(-n2nc(C(F)(F)F)cc2-c2ccc(Cl)cc2)cc1` [SC-236]: the remaining activity at 1.25 µM in assay [1] (Well no.=5773) is 110%. Besides, the remaining activity at 3.75 µM in assay [2] (Well no.=5773) was 98%.
On to `C=CCN1CCCC1CNC(=O)c1cc(S(N)(=O)=O)cc(OC)c1OC` (stereo not shown) [Veralipride], for which the remaining activity at 1.25 µM in assay [1] (Well no.=7715) stood at 93.1%. Also, the remaining activity at 3.75 µM in assay [2] (Well no.=7715) is 97.9%.
`CCCC[C@H](N)C(=O)O` [L-Norleucine]: the remaining activity at 1.25 µM in assay [1] (Well no.=7733) amounted to 103%. Further, the remaining activity at 3.75 µM in assay [2] (Well no.=7733) came out at 106%.
For the molecule `CN/C(=N\CCSCc1nc[nH]c1C)NC#N` [Cimetidine], the figures for the remaining activity at 1.25 µM in assay [1] (Well no.=272), in assay [1] (Well no.=1875) and in assay [1] (Well no.=7328) were 88%, 96.3% and 94.5%, respectively. Also, the remaining activity at 3.75 µM worked out at 93.4% in assay [2] (Well no.=272), 99.3% in assay [2] (Well no.=1875) and 97.6% in assay [2] (Well no.=7328).
As to `NC(N)=NCCC[C@H](N)C(=O)NCC(=O)N[C@@H](CC(=O)O)C(=O)N[C@@H](CS)C(=O)O` [Arg-Gly-Asp-Cys] (H-RGDC-OH), the remaining activity at 1.25 µM in assay [1] (Well no.=8126) came out at 99.2%. Also, in assay [2] (Well no.=8126), the remaining activity at 3.75 µM came out at 97.3%.
In the case of `N#Cc1ccc(COC[C@H]2O[C@@H](n3c(NCc4ccc(Cl)c(Cl)c4)nc4c(N)ncnc43)[C@H](O)[C@@H]2O)cc1` [VER155008], in assay [1] (Well no.=8816), the remaining activity at 1.25 µM turned out to be 89.7%. Moreover, the remaining activity at 3.75 µM in assay [2] (Well no.=8816) is 89.6%.
Take `CC(C)=CC[C@@H](OC(=O)C=C(C)C)C1=CC(=O)c2c(O)ccc(O)c2C1=O`: in assay [1] (Well no.=3305), the remaining activity at 1.25 µM worked out at 89.6%. Moreover, the remaining activity at 3.75 µM in assay [2] (Well no.=3305) was found to be 85.3%.
